Reference: patent US20250380700A1, “HERBICIDAL COMBINATIONS AND A METHOD FOR CONTROLLING UNDESIRED VEGETATION” (UPL Mauritius Limited, priority 2022, published 2025)

Test system: weedy Glycine max
Assay: Post-emergence herbicidal activity trial on weedy Glycine max (observed efficacy vs Colby expected efficacy)
Assay type: in vivo
Description: Methodology: Trials were conducted to evaluate the efficacy of the combination comprising L-glufosinate ammonium and additional herbicides on weedy Glycine max.
The soil used was sandy clay loam-sand: 68.0%; silt: 8.0%; clay: 24.0%.
All treatments were in 3 replications per treatment with a spray volume of about 150 L/ha.
The expected efficacy of a combination of L-glufosinate ammonium and the other herbicides was calculated using the well-established Colby method. Any difference between the observed and “expected” efficacy could be attributed to synergy between the two compounds.
In the Colby method, the expected (or predicted) response of a combination of herbicides is calculated by taking the product of the observed response for each individual component of the combination when applied alone, divided by 100, and subtracting this value from the sum of the observed response for each component when applied alone. An unexpected enhancement in efficacy of the combination is then determined by comparing the observed response of the combination to the expected (or predicted) response as calculated from the observed response of each individual component alone. If the observed response of the combination is greater than the expected (or predicted) response, or stated conversely, if the difference between the observed and expected response is greater than zero, then the combination is said to be synergistic or unexpectedly effective (Colby, S. R., Weeds, 1967(15), p. 20-22). The Colby method requires only a single dose of each herbicide applied alone and the mixture of both doses. The formula used to calculate the expected efficacy (EE) which was compared with the observed efficacy (OE) to determine the efficacy of the present disclosure is explained hereinbelow:
The expected efficacy for a combination of two active ingredients is as follows:
The expected efficacy for a combination of three active ingredients is as follows:
wherein, • A=Observed efficacy of active ingredient A at the same concentration as used in the mixture. • B=Observed efficacy of the active ingredient B at the same concentration as used in the mixture. • C=Observed efficacy of the active ingredient C at the same concentration as used in the mixture.

Compound: O=C(O)COc1ccc(Cl)cc1Cl [2,4-D]
- Observed efficacy (%) of 2,4-D (228 g a.i./ha) (Example 3, Table 4, 3 DAA): 50%
- Observed efficacy (%) of 2,4-D (228 g a.i./ha) (Example 3, Table 4, 7 DAA): 60%

Compound: CP(=O)(O)CC[C@H](N)C(=O)O.N [L-glufosinate ammonium]
- Observed efficacy (%) of L-glufosinate ammonium (150 g a.i./ha) (Example 1, Table 2, 3 DAA, post-emergence): 65%
- Observed efficacy (%) of L-glufosinate ammonium (150 g a.i./ha) (Example 1, Table 2, 7 DAA, post-emergence): 65%
- Observed efficacy (%) of L-glufosinate ammonium (150 g a.i./ha) (Example 2, Table 3, 3 DAA): 50%
- Observed efficacy (%) of L-glufosinate ammonium (150 g a.i./ha) (Example 2, Table 3, 7 DAA): 65%
- Observed efficacy (%) of L-glufosinate ammonium (150 g a.i./ha) (Example 3, Table 4, 3 DAA): 50%
- Observed efficacy (%) of L-glufosinate ammonium (150 g a.i./ha) (Example 3, Table 4, 7 DAA): 75%

Compound: CC(C)N(C)S(=O)(=O)NC(=O)c1cc(-n2c(=O)cc(C(F)(F)F)n(C)c2=O)c(F)cc1Cl [Saflufenacil]
- Observed efficacy (%) of Saflufenacil (30 g a.i./ha) (Example 1, Table 2, 3 DAA): 50%
- Observed efficacy (%) of Saflufenacil (30 g a.i./ha) (Example 1, Table 2, 7 DAA): 70%
- Observed efficacy (%) of Saflufenacil (30 g a.i./ha) (Example 2, Table 3, 3 DAA): 65%
- Observed efficacy (%) of Saflufenacil (30 g a.i./ha) (Example 2, Table 3, 7 DAA): 70%
- Observed efficacy (%) of Saflufenacil (30 g a.i./ha) (Example 3, Table 4, 3 DAA): 65%
- Observed efficacy (%) of Saflufenacil (30 g a.i./ha) (Example 3, Table 4, 7 DAA): 75%

Compound: O=C(O)COc1nc(Cl)c(Cl)cc1Cl [Triclopyr]
- Observed efficacy (%) of Triclopyr (228 g a.i./ha) (Example 2, Table 3, 3 DAA): 75%
- Observed efficacy (%) of Triclopyr (228 g a.i./ha) (Example 2, Table 3, 7 DAA): 68%
